In publication PMC4897634, “Design of an α-helical antimicrobial peptide with improved cell-selective and potent anti-biofilm activity” (Scientific Reports, 2016):
In brackets after ≈: the same amount, converted by molar mass. Several values for one entry are separate records, joined by “and”; a condition that tells them apart may be missing. Equal values may be shown once. Where no end group is shown, it is not given here.

What was measured:
human erythrocytes = test: Haemolytic activity; format: cell-based; settings: 37 °C, 30 min; for haemolysis rate / haemolytic activity: human erythrocytes, relative to 0.1% Triton X-100; for haemolytic activity: 25 μM peptide; for MHC, minimum haemolytic concentration: concentration causing 10% haemolysis of hRBC, 200 μM used when no haemolysis detectable at 100 μM
Experimental: Haemolytic activity of the peptides was assayed by a standard procedure with slight modification. Fresh human erythrocytes were washed three times and resuspended at 1.25% haematocrit in PBS. Forty microlitres PBS-diluted peptide solution was added to a V-bottom 96-well plate (Corning Inc., Lowell, MA, USA), and 160 μl of erythrocytes was added. After incubation at 37 °C for 30 min, the samples were centrifuged, and the absorbance of the supernatant was measured at 450 nm using a multi-well microplate reader (SpectraMax M5; Molecular Devices, Sunnyvale, CA, USA) and compared with the 100% haemolysis caused by 0.1% Triton X-100. The percentage of haemolysis was calculated according to the equation (2): […]

[1] = system: Bacillus subtilis (1.3376); test: Antimicrobial activity, broth microdilution MIC; format: cell-based; settings: modified CLSI broth microdilution, LB medium, 1 × 10^6 CFU/ml, 37 °C, 18 to 20 hours, absorbance 600 nm
Experimental: (§1) The antibacterial activities of the peptides against three Gram-negative bacteria and three Gram-positive bacteria strains were measured using a modified version of the Clinical Laboratory and Standards Institute (CLSI) broth microdilution method as described previously. Three Gram-negative bacteria, Escherichia coli (1.8732), Pseudomonas aeruginosa (1.2421), and Klebsiella pneumonia (1.1736), and three Gram-positive bacteria, Staphylococcus aureus (1.8721), Staphylococcus epidermidis (1.4260), and Bacillus subtilis (1.3376), were purchased from the China General Microbiological Culture Collection Centre (CGMCC). Briefly, bacteria were grown in liquid LB medium (tryptone, 10 g/L, yeast extract, 5 g/L and NaCl, 10 g/L) at 37 °C to mid-log phase, and the bacteria were diluted to 1 × 10^6 colony-forming units (CFU)/ml. The peptides were serially diluted with phosphate-buffered saline (PBS), and 50 μl diluted peptides were added to 50 μl of the bacterial suspension in 96-well plate (Corning Inc., Lowell, MA, USA). After incubation at 37 °C for 18 to 20 hours, the absorbance of each well was recorded using a multi-well microplate reader (SpectraMax M5; Molecular Devices, Sunnyvale, CA, USA) at 600 nm. The lowest concentration at which the peptide inhibited complete growth of the bacteria was taken as the minimal inhibitory concentration (MIC).

[2] = system: Escherichia coli (1.8732); test: Antimicrobial activity, broth microdilution MIC; format: cell-based; settings: modified CLSI broth microdilution, LB medium, 1 × 10^6 CFU/ml, 37 °C, 18 to 20 hours, absorbance 600 nm
Experimental: as §1

[3] = system: Klebsiella pneumonia (1.1736); test: Antimicrobial activity, broth microdilution MIC; format: cell-based; settings: modified CLSI broth microdilution, LB medium, 1 × 10^6 CFU/ml, 37 °C, 18 to 20 hours, absorbance 600 nm
Experimental: as §1

[4] = system: Pseudomonas aeruginosa (1.2421); test: Antimicrobial activity, broth microdilution MIC; format: cell-based; settings: modified CLSI broth microdilution, LB medium, 1 × 10^6 CFU/ml, 37 °C, 18 to 20 hours, absorbance 600 nm
Experimental: as §1

[5] = system: Staphylococcus aureus (1.8721); test: Antimicrobial activity, broth microdilution MIC; format: cell-based; settings: modified CLSI broth microdilution, LB medium, 1 × 10^6 CFU/ml, 37 °C, 18 to 20 hours, absorbance 600 nm
Experimental: as §1

[6] = system: Staphylococcus epidermidis (1.4260); test: Antimicrobial activity, broth microdilution MIC; format: cell-based; settings: modified CLSI broth microdilution, LB medium, 1 × 10^6 CFU/ml, 37 °C, 18 to 20 hours, absorbance 600 nm
Experimental: as §1

Gram-negative bacteria = format: cell-based, E. coli, P. aeruginosa, K. pneumoniae; settings: for TI, therapeutic index: ratio of MHC to GM
Experimental: (§2) The antimicrobial activities of the peptides, indicated by the minimum inhibitory concentrations (MIC), were determined against a range of Gram-negative (Table 3) and Gram-positive bacterial strains (Table 4). The geometric mean of MIC values (GM) from the three strains was calculated to provide an overall evaluation of antimicrobial activity.
(§3) The therapeutic index (TI) is defined as the ratio of the minimum haemolytic concentration (MHC) of peptides to the GM of peptides, and this value was used to evaluate cell selectivity of peptides towards the negatively charged region of bacterial cell membranes over the zwitterionic mammalian cell membranes.
as §1

Gram-positive bacteria = format: cell-based, S. aureus, S. epidermidis, B. subtilis; settings: for TI, therapeutic index: ratio of MHC to GM
Experimental: as §2, §3, §1

[7] = system: L929 mouse fibroblast cells; test: Cytotoxicity, MTT assay; format: cell-based; settings: 50 μM peptide, 1 hour
Experimental: The toxicity of the peptides against L929 mouse fibroblast cells was assessed by a standard MTT assay. L929 mouse fibroblast cells from ATCC (Manassas, VA, USA) were maintained in our laboratory. L929 cells were cultured in RPMI 1640 supplemented with 10% (v/v) FBS, 2 mM L-glutamine, 100 U/ml penicillin and […] streptomycin and maintained in a humidified incubator with 5% CO2 at 37 °C. L929 cells (5 × 10^3cells/well) were seeded in 96-well plates (Corning Inc., Lowell, MA, USA) and incubated overnight. Diluted peptides were added to L929 cells and incubated for 1 hour. Then, 20 μl of MTT (5 mg/ml) solution was added and incubated for 4 hours. The medium was removed, and 150 μl of DMSO was added to each well to dissolve the formazan crystals. The absorbance was measured at 490 nm on a microplate reader (SpectraMax M5; Molecular Devices, Sunnyvale, CA, USA). Cell viabilities were calculated by using the equation (3): […]

Row | Compound | haemolysis rate (human erythrocytes; 3.13 μM peptide) | haemolytic activity (human erythrocytes) | MHC, minimum haemolytic concentration (human erythrocytes) | MIC B. subtilis [1] | MIC E. coli [2] | MIC K. pneumoniae [3] | MIC P. aeruginosa [4] | MIC S. aureus [5] | MIC S. epidermidis [6] | TI, therapeutic index (Gram-negative bacteria; Gram-negative bacteria) | TI, therapeutic index (Gram-positive bacteria; Gram-positive bacteria) | haemolysis rate (human erythrocytes; 100 μM peptide) | viability of treated L929 cells [7] | GM, geometric mean of MIC (Gram-negative bacteria; Gram-negative strains E. coli, P. aeruginosa, K. pneumoniae) | Fold (Gram-negative bacteria; Table S2, TI compared with melittin, Gram-negative bacteria) | GM, geometric mean of MIC (Gram-positive bacteria; Gram-positive strains S. aureus, S. epidermidis, B. subtilis) | Fold (Gram-positive bacteria; Table S3, TI compared with melittin, Gram-positive bacteria)
1 | AIGSILGRLAKGLPTLISWIKNR-NH2 [A(A8R)] | 12.9% | 98.3% | 3.12 µM and 3.13 µM | 3.13 µM | 12.5 µM | 12.5 µM | 12.5 µM | 3.13 µM | 3.13 µM | 0.25 | 1 | – | – | – | – | – | –
2 | CC[C@H](C)[C@H](NC(=O)CN)C(=O)NCC(=O)N[C@@H](C)C(=O)N[C@H](C(=O)N[C@@H](CC(C)C)C(=O)N[C@@H](CCCCN)C(=O)N[C@H](C(=O)N[C@@H](CC(C)C)C(=O)N[C@H](C(=O)N[C@H](C(=O)NCC(=O)N[C@@H](CC(C)C)C(=O)N1CCC[C@H]1C(=O)N[C@@H](C)C(=O)N[C@@H](CC(C)C)C(=O)N[C@H](C(=O)N[C@@H](CO)C(=O)N[C@@H](Cc1c[nH]c2ccccc12)C(=O)N[C@H](C(=O)N[C@@H](CCCCN)C(=O)N[C@@H](CCCNC(=N)N)C(=O)N[C@@H](CCCCN)C(=O)N[C@@H](CCCNC(=N)N)C(=O)N[C@@H](CCC(N)=O)C(=O)N[C@@H](CCC(N)=O)C(N)=O)[C@@H](C)CC)[C@@H](C)CC)[C@@H](C)O)[C@@H](C)O)C(C)C)C(C)C [Melittin, reference compound] | – | – | 0.78 µM | – | – | 6.25 µM (≈ 17.8 µg/mL) | – | – | – | – | – | – | – | – | – | – | –
3 | RIGSILGRLAKGLPTLRSWIKNR-NH2 [A(A1R, A8R, I17R)] | – | – | 100 µM | 12.5 µM | 12.5 µM | 12.5 µM | 12.5 µM | 100 µM | 3.13 µM | 8 | 6.35 | – | – | – | – | – | –
4 | AIGSILGALAKGLPTLKSWIKNR-NH2 [A(I17K)] | – | 6.4% | 50 µM | 6.25 µM | 25 µM | 50 µM | 25 µM | 50 µM | 12.5 µM | 1.59 | 3.17 | 33% | 7.9% | – | – | – | –
5 | RIGVLLARLPKLFSLFKLMGKKV-NH2 [RV-23, reference compound] | – | – | 6.25 µM | 3.125 µM and 3.13 µM | 6.25 µM | 6.25 µM | 6.25 µM | 12.5 µM | 3.125 µM and 3.13 µM | 1 | 1.26 | – | – | – | – | – | –
6 | RIGSILGRLAKGLPTLISWIKNR-NH2 [A(A1R, A8R)] | – | – | 6.25 µM | 6.25 µM | 6.25 µM | 6.25 µM | 6.25 µM | 12.5 µM | 3.13 µM | 1 | 1 | – | – | – | – | – | –
7 | AIGSILGALAKGLPTLRSWIKNR-NH2 [A(I17R)] | – | – | 25 µM | 3.13 µM | 12.5 µM | 25 µM | 12.5 µM | 25 µM | 6.25 µM | 1.59 | 3.17 | 74% | 6.6% | – | – | – | –
8 | RIGSILGALAKGLPTLKSWIKNR-NH2 [A(A1R, I17K)] | – | – | 100 µM | 6.25 µM | 25 µM | 25 µM | 12.5 µM | 100 µM | 6.25 µM | 5.04 | 6.35 | – | 6.3% | – | – | – | –
9 | AIGSILGRLAKGLPTLKSWIKNR-NH2 [A(A8R, I17K)] | – | – | 100 µM | 12.5 µM | 25 µM | 25 µM | 25 µM | 100 µM | 6.25 µM | 4 | 5.04 | – | 21.1% | – | – | – | –
10 | RIGSILGALAKGLPTLISWIKNR-NH2 [A(A1R)] | 25.9% | – | 3.12 µM and 3.13 µM | 6.25 µM | 12.5 µM | 12.5 µM | 6.25 µM | 6.25 µM | 3.13 µM | 0.31 | 0.63 | – | – | – | – | – | –
11 | M(G1R, V8R, I17R): melittin analogue with residues at position 1, 8 and 17 replaced by positively charged residues (RIGAVLKRLTTGLPALRSWIKRKRQQ; not fully specified; ends and bridges not checked; UniProt P01501 44-69, looked up, variant G1R V8R I17R) | – | – | 200 µM | 3.125 µM | 25 µM | 12.5 µM | 25 µM | 100 µM | 6.25 µM | 10.1 | 16 | – | – | 19.8 µM | 101 | 12.5 µM | 64
